Converted amounts (≈) assume the structure as drawn.
Experiments:
Canis familiaris = species on record: Canis familiaris; settings: dog, in vivo, iv
in vivo = settings: callithrix, serum, iv
Description: Serum T1/2 in marmosets (IV dose)

[1] = Urinary recovery in marmosets (IV dose); assay type: ADME, organism-based; settings: callithrix, urine, read-out: Recovery
Homo sapiens = species on record: Homo sapiens; test: Compound was tested for serum protein binding in human blood; assay type: functional
Staphylococcus aureus [2] = test: microbe, parasite or virus in culture
Description: Compound was tested for antimicrobial activity against Staphylococcus aureus Oxford strain

Enterobacter cloacae [3] = test: microbe, parasite or virus in culture
Description: Compound was tested for antimicrobial activity against Enterobacter cloacae constitutive derepressed type I beta-lactamase producer (P99+) strain

Escherichia coli [4] = test: microbe, parasite or virus in culture
Description: Compound was tested for antimicrobial activity against Escherichia coli DC0 strain (parent organism)

Pseudomonas aeruginosa [5] = test: microbe, parasite or virus in culture
Description: Compound was tested for antimicrobial activity against Pseudomonas aeruginosa PU21 strain

Pseudomonas aeruginosa [6] = test: microbe, parasite or virus in culture; remark: listed apart in the source
Description: Compound was tested for antimicrobial activity against Pseudomonas aeruginosa constitutive derepressed type I beta-lactamase producer (18SH) strain

Enterobacter cloacae [7] = test: microbe, parasite or virus in culture; remark: listed apart in the source
Description: Compound was tested for antimicrobial activity against Enterobacter cloacae inducible type I beta-lactamase producer (P99-) strain

Staphylococcus aureus [8] = test: microbe, parasite or virus in culture; remark: listed apart in the source
Description: Compound was tested for antimicrobial activity against Staphylococcus aureus penicillin sensitive Staphylococcus aureus (147N) strain

Mus musculus = test: Compound was evaluated in vivo for antibacterial activity against Pseudomonas aeruginosa (strain 101010) in mice; assay type: functional; settings: read-out: PD50
Escherichia coli [9] = test: microbe, parasite or virus in culture; remark: listed apart in the source
Description: Compound was tested for antimicrobial activity against Escherichia coli DC2 strain (permeability mutant)

Description for physchem: Dissociation constant (pKa)

Compound	pKa (physchem)	AUC (Canis familiaris) [mg/h/L]	half-life (in vivo) [min]	other results
CC(C)(O/N=C(\C(=O)N[C@@H]1C(=O)N2C(C(=O)O)=C(CNC(=O)c3cc(O)c(O)c(F)c3)CS[C@H]12)c1csc(N)n1)C(=O)O	7.45	116.8	210	
CC(C)(O/N=C(\C(=O)N[C@@H]1C(=O)N2C(C(=O)O)=C(CNC(=O)c3ccc(O)c(O)c3Cl)CS[C@H]12)c1csc(N)n1)C(=O)O	7.65	131	174	
CCN(CC1=C(C(=O)O)N2C(=O)[C@@H](NC(=O)/C(=N\OC(C)(C)C(=O)O)c3csc(N)n3)[C@H]2SC1)C(=O)c1cc(O)c(O)c([N+](=O)[O-])c1	5.8	49.2	96	
CCN(CC1=C(C(=O)O)N2C(=O)[C@@H](NC(=O)/C(=N\OC(C)(C)C(=O)O)c3csc(N)n3)[C@H]2SC1)C(=O)c1cc(O)c(O)c(Cl)c1	7.4	16.4	54	
CC(C)(O/N=C(\C(=O)N[C@@H]1C(=O)N2C(C(=O)O)=C(CNC(=O)c3cc4ccc(O)c(O)c4oc3=O)CS[C@H]12)c1csc(N)n1)C(=O)O		243.9	237	dose excreted [1]: 6.9%; Activity (Homo sapiens): 99.6%
CCO/N=C(\C(=O)N[C@@H]1C(=O)N2C(C(=O)O)=C(CNC(=O)c3cc(O)c(O)c(Br)c3)CS[C@H]12)c1csc(N)n1	6.9	17	42	MIC (Staphylococcus aureus [2]): 2 µg/mL (≈ 3.12 µM); MIC (Enterobacter cloacae [3]): 8 µg/mL (≈ 12.5 µM); MIC (Escherichia coli [4]): < 0.008 µg/mL; MIC (Pseudomonas aeruginosa [5]): 0.06 µg/mL (≈ 0.0935 µM); MIC (Pseudomonas aeruginosa [6]): 4 µg/mL (≈ 6.24 µM); MIC (Enterobacter cloacae [7]): 0.015 µg/mL (≈ 0.0234 µM); MIC (Staphylococcus aureus [8]): 4 µg/mL (≈ 6.24 µM)
CCN(CC1=C(C(=O)O)N2C(=O)[C@@H](NC(=O)/C(=N\OC(C)(C)C(=O)O)c3csc(N)n3)[C@H]2SC1)C(=O)c1cc(O)c(O)c(F)c1	7.85	10.9	30	
CCO/N=C(\C(=O)N[C@@H]1C(=O)N2C(C(=O)O)=C(CNC(=O)c3cc(O)c(O)c([N+](=O)[O-])c3)CS[C@H]12)c1csc(N)n1	5.5	48.9	48	
CC(C)(O/N=C(\C(=O)N[C@@H]1C(=O)N2C(C(=O)O)=C(CNCc3cc(O)c(O)c(Br)c3)CS[C@H]12)c1csc(N)n1)C(=O)O		4.4	42	
CCN(CC1=C(C(=O)O)N2C(=O)[C@@H](NC(=O)/C(=N\OC(C)(C)C(=O)O)c3csc(N)n3)[C@H]2SC1)C(=O)c1cc(O)c(O)cc1F	8.25	7.6	36	
CCn1nc(C(=O)NCC2=C(C(=O)O)N3C(=O)[C@@H](NC(=O)/C(=N\OC(C)(C)C(=O)O)c4csc(N)n4)[C@H]3SC2)c(=O)c2cc(O)c(O)cc21	6.5	129.8	132	dose excreted [1]: 26.9%; Activity (Homo sapiens): 97.8%
CCOC(=O)c1nc2cc(O)c(O)cc2nc1C(=O)NCC1=C(C(=O)O)N2C(=O)[C@@H](NC(=O)/C(=N\OC(C)(C)C(=O)O)c3csc(N)n3)[C@H]2SC1	6	287	276	
CCO/N=C(\C(=O)N[C@@H]1C(=O)N2C(C(=O)O)=C(CNC(=O)c3cc(O)c(O)c(Cl)c3)CS[C@H]12)c1csc(N)n1	6.9	57.6	78	
CCO/N=C(\C(=O)N[C@@H]1C(=O)N2C(C(=O)O)=C(CNC(=O)c3cc(O)c(O)cc3Br)CS[C@H]12)c1csc(N)n1	6.9	2	21	
CC(C)(O/N=C(\C(=O)N[C@@H]1C(=O)N2C(C(=O)O)=C(COC(=O)c3cc(O)c(O)c(Br)c3)CS[C@H]12)c1csc(N)n1)C(=O)O	6.5	67.7	102	
CO/N=C(\C(=O)N[C@@H]1C(=O)N2C(C(=O)O)=C(COC(C)=O)CS[C@H]12)c1csc(N)n1 [CEFOTAXIME]		46.7	30	
CC(C)(O/N=C(\C(=O)N[C@@H]1C(=O)N2C(C(=O)O)=C(CNC(=O)/C=C/c3cc(O)c(O)cc3Br)CS[C@H]12)c1csc(N)n1)C(=O)O		24.2	60	
CC(C)(O/N=C(\C(=O)N[C@@H]1C(=O)N2C(C(=O)O)=C(CNC(=O)c3cc(O)c(O)cc3F)CS[C@H]12)c1csc(N)n1)C(=O)O	7.8	78	96	

Compound	pKa (physchem)	AUC (Canis familiaris) [mg/h/L]	half-life (in vivo) [min]	other results
CCO/N=C(\C(=O)N[C@@H]1C(=O)N2C(C(=O)O)=C(CNC(=O)c3cc(Cl)c(O)c(O)c3Cl)CS[C@H]12)c1csc(N)n1	6.9	54.5	84	
CC(C)(O/N=C(\C(=O)N[C@@H]1C(=O)N2C(C(=O)O)=C(CNC(=O)c3cc(O)c(O)c(O)c3)CS[C@H]12)c1csc(N)n1)C(=O)O	8.35	51.9	54	MIC (Pseudomonas aeruginosa [5]): 0.9 µg/mL (≈ 1.41 µM); MIC (Pseudomonas aeruginosa [6]): 8.1 µg/mL (≈ 12.7 µM)
CCO/N=C(\C(=O)N[C@@H]1C(=O)N2C(C(=O)O)=C(CNC(=O)c3cc(O)c(O)c(F)c3)CS[C@H]12)c1csc(N)n1	7.4	25	39	
CC(C)(O/N=C(\C(=O)N[C@@H]1C(=O)N2C(C(=O)O)=C(CNC(=O)Nc3cc(O)c(O)c(Br)c3)CS[C@H]12)c1csc(N)n1)C(=O)O		122.3	168	
CC(C)(O/N=C(\C(=O)N[C@@H]1C(=O)N2C(C(=O)O)=C(CNC(=O)c3cc(Cl)c(O)c(O)c3Cl)CS[C@H]12)c1csc(N)n1)C(=O)O	6.3	461	492	ED50 (Mus musculus): 3 µg/kg; dose excreted [1]: 16.2%; Activity (Homo sapiens): 98.7%
CC(C)(O/N=C(\C(=O)N[C@@H]1C(=O)N2C(C(=O)O)=C(CNC(=O)c3cc(O)c(O)c(C#N)c3)CS[C@H]12)c1csc(N)n1)C(=O)O	5.5	394.5	318	ED50 (Mus musculus): 13 µg/kg; dose excreted [1]: 8.7%; Activity (Homo sapiens): 96.7%
CC(C)(O/N=C(\C(=O)N[C@@H]1C(=O)N2C(C(=O)O)=C(CNC(=O)c3cc(O)c(O)cc3Br)CS[C@H]12)c1csc(N)n1)C(=O)O	8.1	13.4	54	
CC(C)(O/N=C(\C(=O)N[C@@H]1C(=O)N2C(C(=O)O)=C(CNC(=O)c3cc(O)c(O)c(Cl)c3)CS[C@H]12)c1csc(N)n1)C(=O)O	7	638.3	276	ED50 (Mus musculus): 4 µg/kg
CCn1cc(C(=O)NCC2=C(C(=O)O)N3C(=O)[C@@H](NC(=O)/C(=N\OC(C)(C)C(=O)O)c4csc(N)n4)[C@H]3SC2)c(=O)c2c(Cl)c(O)c(O)cc21	7	645.7	342	
CCO/N=C(\C(=O)N[C@@H]1C(=O)N2C(C(=O)O)=C(CNC(=O)c3ccc(O)c(O)c3)CS[C@H]12)c1csc(N)n1	8.5	4.3	48	MIC (Staphylococcus aureus [2]): 2 µg/mL (≈ 3.56 µM); MIC (Escherichia coli [9]): 0.08 µg/mL (≈ 0.142 µM); MIC (Enterobacter cloacae [3]): 64 µg/mL (≈ 114 µM); MIC (Escherichia coli [4]): 0.06 µg/mL (≈ 0.107 µM); MIC (Pseudomonas aeruginosa [5]): 0.25 µg/mL (≈ 0.444 µM); MIC (Pseudomonas aeruginosa [6]): 64 µg/mL (≈ 114 µM); MIC (Enterobacter cloacae [7]): 0.5 µg/mL (≈ 0.889 µM); MIC (Staphylococcus aureus [8]): 4 µg/mL (≈ 7.11 µM)
CCN(CC1=C(C(=O)O)N2C(=O)[C@@H](NC(=O)/C(=N\OC(C)(C)C(=O)O)c3csc(N)n3)[C@H]2SC1)C(=O)c1cc(O)c(O)c(Br)c1	7.3	21.8	60	MIC (Staphylococcus aureus [2]): 32 µg/mL (≈ 44 µM); MIC (Escherichia coli [9]): 0.015 µg/mL (≈ 0.0206 µM); MIC (Enterobacter cloacae [3]): 1 µg/mL (≈ 1.37 µM); MIC (Escherichia coli [4]): 0.015 µg/mL (≈ 0.0206 µM); MIC (Pseudomonas aeruginosa [5]): 0.03 µg/mL (≈ 0.0412 µM); MIC (Pseudomonas aeruginosa [6]): 0.06 µg/mL (≈ 0.0825 µM); MIC (Enterobacter cloacae [7]): 0.25 µg/mL (≈ 0.344 µM); MIC (Staphylococcus aureus [8]): 32 µg/mL (≈ 44 µM)
CCO/N=C(\C(=O)N[C@@H]1C(=O)N2C(C(=O)O)=C(CNC(=O)c3cc(O)c(O)c(C#N)c3)CS[C@H]12)c1csc(N)n1	5.5	107	72	
CC(C)(O/N=C(\C(=O)N[C@@H]1C(=O)N2C(C(=O)O)=C(CNC(=O)c3cc(O)c(O)c([N+](=O)[O-])c3)CS[C@H]12)c1csc(N)n1)C(=O)O	5.5	181.7	174	dose excreted [1]: 47.3%; Activity (Homo sapiens): 97.5%
CCn1cc(C(=O)NCC2=C(C(=O)O)N3C(=O)[C@@H](NC(=O)/C(=N\OC(C)(C)C(=O)O)c4csc(N)n4)[C@H]3SC2)c(=O)c2cc(O)c(O)nc21	5.6	137.3	168	
CCN(CC1=C(C(=O)O)N2C(=O)[C@@H](NC(=O)/C(=N\OC(C)(C)C(=O)O)c3csc(N)n3)[C@H]2SC1)C(=O)c1cc(O)c(O)c(C#N)c1	5.8	41	60	
CC(C)(O/N=C(\C(=O)N[C@@H]1C(=O)N2C(C(=O)O)=C(CNC(=O)c3cc(O)c(O)c(Br)c3)CS[C@H]12)c1csc(N)n1)C(=O)O	6.9	137.1	174	MIC (Staphylococcus aureus [2]): 16 µg/mL (≈ 22.9 µM); ED50 (Mus musculus): 24 µg/kg; dose excreted [1]: 13.9%; MIC (Enterobacter cloacae [3]): 2 µg/mL (≈ 2.86 µM); MIC (Pseudomonas aeruginosa [5]): < 0.008 µg/mL; MIC (Pseudomonas aeruginosa [6]): 0.015 µg/mL (≈ 0.0214 µM); MIC (Enterobacter cloacae [7]): 0.03 µg/mL (≈ 0.0429 µM); MIC (Staphylococcus aureus [8]): 16 µg/mL (≈ 22.9 µM); Activity (Homo sapiens): 99.2%
CC(C)(O/N=C(\C(=O)N[C@@H]1C(=O)N2C(C(=O)O)=C(/C=C/c3cc(O)c(O)c(Br)c3)CS[C@H]12)c1csc(N)n1)C(=O)O	7.7	61.6	90	
CC(C)(O/N=C(\C(=O)N[C@@H]1C(=O)N2C(C(=O)O)=C(CNC(=O)Cc3cc(O)c(O)cc3Br)CS[C@H]12)c1csc(N)n1)C(=O)O		1.6		

From ChEMBL document CHEMBL1125482, “Pharmacokinetics of catechol cephalosporins. The effect of incorporating substituents into the catechol moiety on pharmacokinetics in a marmoset model” (J Med Chem, 1992)
